Reference: BindingDB's records for doi:10.1016/j.bmcl.2011.01.015 (Incyte, 2011)
pIC50: −log10 of the molar value.

Test: Antagonist activity at human CCR5 receptor by chemotaxis assay

Compound: CO[C@@H]1COCC[C@@H]1N[C@@H]1CC[C@](CC(F)(F)F)(C(=O)N2CCN(c3cc(C(F)(F)F)ccn3)CC2)C1 [((1S,3R)-3-((3S,4S)-3-methoxy-tetrahydro-2H-pyran-4-ylamino)-1-(2,2,2-trifluoroethyl)cyclopentyl)(4-(4-(trifluoromethyl)pyridin-2-yl)piperazin-1-yl)methanone]
- pIC50: 7.96
